# Laboratory results published in US12686676B2, “Compound, endothelin-A receptor antagonist, and pharmaceutical composition” (Alchemedicine, Inc., priority 2021, dated 2026).
# Assays:
# [1] = tested on: BigET-1-induced blood pressure; assay: BigET-1-induced blood pressure evaluation test; format: in vivo, Wistar rat; details: 30 mg/kg into the duodenum 1 hour before BigET-1 (20 μg/kg); Mean ± SD, N = 6
# Procedure: Each 8- to 20-week-old male Wistar rat was subjected to tracheal catheter treatment for airway management, carotid catheter treatment for blood pressure measurement, femoral venous catheter treatment for BigET-1 administration, and duodenal catheter treatment for test substance administration under analgetic treatment and urethane anesthesia. After confirmation that the blood pressure and the heart rate became stable, a vehicle (0.5% methylcellulose 400 solution) or 30 mg/kg (5 ml/kg) of a test substance adjusted with a vehicle was administered into the duodenum. One hour thereafter, BigET-1 (20 μg/kg) was administered thereto, and the blood pressure was monitored until 60 minutes after BigET-1 administration. The test was conducted at n=6 per group. In analysis, systolic blood pressure and diastolic blood pressure were determined for 20 seconds every 5 minutes from 5 minutes before BigET-1 administration to 60 minutes after BigET-1 administration, and AUC0-60 min (mmHg*min) for 60 minutes after BigET-1 administration was calculated using a delta value from the value obtained 5 minutes before BigET-1 administration. The Student's t test was used for the comparison of AUC between the vehicle administration group and the test substance administration group.
# [2] = PAMPA membrane permeability test; format: in vitro ADME; details: 10 μM, room temperature, 16 hours
# Procedure: The membrane permeability test was carried out using PAMPA. The specific method is as follows. • (1) Lecithin was added at 2% (w/v) into a dodecane solution and completely dissolved. • (2) 5 μL of the lecithin/dodecane solution was added to each well of a donor plate. In this respect, a pipette tip was positioned in no contact with the membrane. • (3) Immediately thereafter, 150 μL of a donor solution (5% DMSO-PBS) containing an evaluation compound (10 μM) was added to each well of the donor plate, and 300 μL of an aqueous buffer was added to each well of a PTFE acceptor plate. • (4) The donor plate filled with the donor solution containing the evaluation compound was slowly placed on the acceptor plate, and the undersurface of the membrane was confirmed to be in contact with the buffer in all the wells. • (5) After covering, the apparatus was incubated at room temperature for 16 hours. • (6) After incubation, 100 μL of the solution was recovered from each of the upper surface and the undersurface of the membrane in the acceptor plate, and acetonitrile containing an equal amount of an internal standard was added thereto. • (7) The concentration of the evaluation compound was measured to calculate a permeation rate.
# A sample having a membrane permeation rate value of 1×10^−8 cm/sec or lower was given “C”; a sample having a value in the range of higher than 1×10^−8 cm/sec and 10×10^−8 cm/sec or lower was given “B”; and a sample having a value of higher than 10×10^−8 cm/sec was given “A”.
# [3] = target: T1, human endothelin A receptor (Homo sapiens, UniProt P25101); assay: Endothelin A receptor inhibitory effect (aequorin light emission, endothelin at EC80); format: cell-based; details: for IC50: CHO-K1-mt aequorin cells expressing human endothelin A receptor, endothelin at EC80, read-out: ETA receptor inhibitory effect; for ETA selectivity (ETB/ETA): ETB IC50 value/ETA IC50 value
# T1 construct: expressed in transfected cells; host or cells: CHO-K1-mt aequorin cells
# T1 sequence (P25101 21-427): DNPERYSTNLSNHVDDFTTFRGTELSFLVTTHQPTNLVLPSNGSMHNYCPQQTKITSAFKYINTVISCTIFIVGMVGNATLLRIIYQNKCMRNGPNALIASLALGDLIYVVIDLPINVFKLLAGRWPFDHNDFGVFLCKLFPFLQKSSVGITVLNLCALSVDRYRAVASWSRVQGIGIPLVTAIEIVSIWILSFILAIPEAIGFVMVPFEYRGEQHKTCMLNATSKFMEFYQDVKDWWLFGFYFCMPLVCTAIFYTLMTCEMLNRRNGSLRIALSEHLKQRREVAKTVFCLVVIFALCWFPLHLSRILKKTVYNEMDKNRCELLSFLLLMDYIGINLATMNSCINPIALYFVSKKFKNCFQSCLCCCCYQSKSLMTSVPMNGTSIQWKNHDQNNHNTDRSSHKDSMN
# Procedure: The inhibitory effect on an endothelin A receptor was studied by the following method.
# CHO-K1-mt aequorin cells forced to express a human endothelin A receptor (Accession Number NP_001948.1) were cultured in an antibiotic-free medium for 18 hours, then treated with PBS-EDTA (5 mM EDTA), centrifuged (2 min, 405×g, room temperature), and then suspended in an assay buffer (DMEM/HAM's F12 with HEPES+0.1% BSA protease free).
# 1×10^6 cells/mL of the cells were incubated at room temperature for 4 hours in the presence of coelenterazine h (Molecular Probes, Inc.) (final concentration: 5 µM). Agonistic reaction based on endothelin was confirmed to determine an endothelin concentration corresponding to EC80.
# Subsequently, 50 µL (10000 cells/well) of the cell suspension treated with coelenterazine h and 50 µL of an assay buffer containing a test substance (final concentration: 0.5% in DMSO) were added to each well of a 96-well plate. 15 minutes later, endothelin was added such that its final concentration was an EC80 concentration. Receptor activity was measured as the quantity of light emission in FDSS6000 (Hamamatsu Photonics K.K.). IC50 values were calculated using XLfit (ID Business Solutions Ltd. (IDBS)).
# [4] = Metabolic stability in human liver microsome; format: in vitro ADME; details: after 30 minutes with NADPH; also: tested at 0.99 µM
# Procedure: The metabolic stability in a human liver microsome was evaluated by the following method.
# • (1) Human liver microsome: 20 mg/mL • (2) Test compound: 1.1 mM solution in DMSO • (3) Potassium phosphate buffer solution: 66.7 mM (pH 7.4) • (4) NADPH solution: 10 mM in a potassium phosphate buffer solution • (5) Quenching solution: 0.5% formic acid solution in acetonitrile containing warfarin as an internal standard 2. Method
# 971.5 μL of the potassium phosphate buffer solution and 27.5 μL of the human liver microsome were placed in a propylene tube and suspended. 1 μL of the test compound was added thereto, and a 180 μL aliquot of this mixture was transferred to a fresh tube. The mixture was preincubated at 37° C. for 5 minutes. Then, 20 μL of the NADPH solution (for an incubation time of 30 minutes) or 20 μL of the potassium phosphate buffer solution (for an incubation time of 0 minutes) was added thereto. After incubation, the reaction was terminated by the addition of 200 μL of the quenching solution. Subsequently, the tube was centrifuged at 3220×g for 20 minutes, and the concentration of an unchanged form of the test compound in […] of a supernatant was measured by LC-MS/MS. On the basis of the obtained peak area of the unchanged form, the residual rate (%) of the unchanged form was calculated using the rate of 0 minutes of incubation time as 100%.
SMILES,Membrane permeation rate [2],IC50 [3] [nM],"Metabolic stability (human), residual rate of the unchanged form [4] [%]",Diastolic blood pressure delta AUC0-60 min [1] [mmHg*min],Systolic blood pressure delta AUC0-60 min [1] [mmHg*min],ETA selectivity (ETB/ETA) [3]
"Cc1cc2c(cc1C#Cc1ncccc1S(=O)(=O)Nc1noc(C)c1C)COC2 [Example 3, N-(4,5-Dimethylisoxazol-3-yl)-2-((6-methyl-1,3-dihydroisobenzofuran-5-yl)ethynyl)pyridine-3-sulfonamide]",A (value of higher than 10×10^−8 cm/sec),≤ 1,47,322 ± 435,113 ± 565,++ (ETB IC50 value/ETA IC50 value of higher than 5000)
"Cc1cc2c(cc1C#Cc1ncccc1S(=O)(=O)Nc1noc(C)c1C)C(=O)OC2 [Example 4, N-(4,5-Dimethylisoxazol-3-yl)-2-((6-methyl-3-oxo-1,3-dihydroisobenzofuran-5-yl)ethynyl)pyridine-3-sulfonamide]",C (membrane permeation rate value of 1×10^−8 cm/sec or lower),≤ 1,49,,,++ (ETB IC50 value/ETA IC50 value of higher than 5000)
"Cc1onc(NS(=O)(=O)c2cccnc2C#Cc2ccc3c(c2)COC3)c1C [Example 5, 2-((1,3-Dihydroisobenzofuran-5-yl)ethynyl)-N-(4,5-dimethylisoxazol-3-yl)pyridine-3-sulfonamide]",B (value in the range of higher than 1×10^−8 cm/sec and 10×10^−8 cm/sec or lower),1 to 10,63,,,
"Cc1cc2c(cc1C#Cc1ncccc1S(=O)(=O)Nc1onc(C)c1C)C(C)(C)OC2 [Example 8, N-(3,4-Dimethylisoxazol-5-yl)-2-((3,3,6-trimethyl-1,3-dihydroisobenzofuran-5-yl)ethynyl)pyridine-3-sulfonamide]",B (value in the range of higher than 1×10^−8 cm/sec and 10×10^−8 cm/sec or lower),≤ 1,73,,,++ (ETB IC50 value/ETA IC50 value of higher than 5000)
"Cc1cc2c(cc1C#Cc1ncccc1S(=O)(=O)Nc1noc(C)c1C)C(C)(C)OC2 [Example 1, N-(4,5-Dimethylisoxazol-3-yl)-2-((3,3,6-trimethyl-1,3-dihydroisobenzofuran-5-yl)ethynyl)pyridine-3-sulfonamide]",A (value of higher than 10×10^−8 cm/sec),≤ 1,59,278 ± 539,83 ± 508,++ (ETB IC50 value/ETA IC50 value of higher than 5000)
"Cc1onc(NS(=O)(=O)c2cccnc2C#Cc2cc3c(cc2Cl)COC3)c1C [Example 6, 2-((6-Chloro-1,3-dihydroisobenzofuran-5-yl)ethynyl)-N-(4,5-dimethylisoxazol-3-yl)pyridine-3-sulfonamide]",A (value of higher than 10×10^−8 cm/sec),1 to 10,56,,,

# The next lines start with results.
Membrane permeation rate [2],IC50 [3] [nM],"Metabolic stability (human), residual rate of the unchanged form [4] [%]",SMILES,Diastolic blood pressure delta AUC0-60 min [1] [mmHg*min],Systolic blood pressure delta AUC0-60 min [1] [mmHg*min],ETA selectivity (ETB/ETA) [3]
A (value of higher than 10×10^−8 cm/sec),≤ 1,28,"Cc1cc2c(cc1C#Cc1ncccc1S(=O)(=O)Nc1onc(C)c1Cl)C(C)(C)OC2 [Example 9, N-(4-Chloro-3-methylisoxazol-5-yl)-2-((3,3,6-trimethyl-1,3-dihydroisobenzofuran-5-yl)ethynyl)pyridine-3-sulfonamide]",,,++ (ETB IC50 value/ETA IC50 value of higher than 5000)
A (value of higher than 10×10^−8 cm/sec),≤ 1,44,"Cc1cc2c(cc1C#Cc1ncccc1S(=O)(=O)Nc1noc(C)c1Cl)C(C)(C)OC2 [Example 7, N-(4-Chloro-5-methylisoxazol-3-yl)-2-((3,3,6-trimethyl-1,3-dihydroisobenzofuran-5-yl)ethynyl)pyridine-3-sulfonamide]",,,
A (value of higher than 10×10^−8 cm/sec),≤ 1,66,"COc1nc(C)cnc1NS(=O)(=O)c1cccnc1C#Cc1cc2c(cc1C)COC2(C)C [Example 10, N-(3-Methoxy-5-methylpyrazin-2-yl)-2-((3,3,6-trimethyl-1,3-dihydroisobenzofuran-5-yl)ethynyl)pyridine-3-sulfonamide]",,,++ (ETB IC50 value/ETA IC50 value of higher than 5000)
